# Tested on: 156681-154-R-J1-PDC complex spheroid viability
# Assay: Anticancer human tumor 156681-154-R-J1-PDC patient-derived melanoma cell line growth inhibition [CLK]
# Conditions: for IC50: curve of first compound; for viability, T/C: stronger effect = lower value
# Outline: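 Patient-derived tumor cells grown as complex spheroids with HUVEC endothelial cells and mesenchymal stem cells, treated with drug combinations. Concentrations descend in half-log steps from near clinical Cmax, or from 10 microM if Cmax unknown.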
# [1] = second compound 0.0316 µM, first compound 0.0316 µM
# [2] = second compound 0.0316 µM, first compound 0.1 µM
# [3] = second compound 0.0316 µM, first compound 0.316 µM
# [4] = second compound 0.0316 µM, first compound 1 µM
# [5] = second compound 0.1 µM, first compound 0.0316 µM
# [6] = second compound 0.1 µM, first compound 0.1 µM
# [7] = second compound 0.1 µM, first compound 0.316 µM
# [8] = second compound 0.1 µM, first compound 1 µM
# [9] = second compound 0.316 µM, first compound 0.0316 µM
# [10] = second compound 0.316 µM, first compound 0.1 µM
# [11] = second compound 0.316 µM, first compound 0.316 µM
# [12] = second compound 0.316 µM, first compound 1 µM
# [13] = second compound 1 µM, first compound 0.0316 µM
# [14] = second compound 1 µM, first compound 0.1 µM
# [15] = second compound 1 µM, first compound 0.316 µM
# [16] = second compound 1 µM, first compound 1 µM
# [17] = second compound 3.16 µM, first compound 0.0316 µM
# [18] = second compound 3.16 µM, first compound 0.1 µM
# [19] = second compound 3.16 µM, first compound 0.316 µM
# [20] = second compound 3.16 µM, first compound 1 µM
# [21] = second compound 10 µM, first compound 0.0316 µM
# [22] = second compound 10 µM, first compound 0.1 µM
# [23] = second compound 10 µM, first compound 0.316 µM
# [24] = second compound 10 µM, first compound 1 µM
# 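Also: spheroids exposed to the agents for seven days.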
# 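For viability, T/C in this document: 100% = DMSO vehicle control viability.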
compound,measurement,setting,value
CCN1CCN(Cc2ccc(Nc3ncc(F)c(-c4cc(F)c5nc(C)n(C(C)C)c5c4)n3)nc2)CC1 + CN1CCN(c2cc(C(=O)Nc3cc4cc(-c5cnn(C)c5)ccc4cn3)ccn2)CC1,IC50,second compound 0.0316 µM,665 nM
same,IC50,second compound 0.1 µM,807 nM
same,IC50,second compound 0.316 µM,< 3.16 nM
same,IC50,second compound 1 µM,< 3.16 nM
same,IC50,second compound 3.16 µM,< 3.16 nM
same,IC50,second compound 10 µM,< 3.16 nM
same,"viability, T/C","second compound 0.0316 µM, first compound 0.00316 µM",97%
same,"viability, T/C","second compound 0.0316 µM, first compound 0.01 µM",94.9%
same,"viability, T/C",[1],87.5%
same,"viability, T/C",[2],77.6%
same,"viability, T/C",[3],71.8%
same,"viability, T/C",[4],39.1%
same,"viability, T/C","second compound 0.1 µM, first compound 0.00316 µM",96.2%
same,"viability, T/C","second compound 0.1 µM, first compound 0.01 µM",76.2%
same,"viability, T/C",[5],70.6%
same,"viability, T/C",[6],89.9%
same,"viability, T/C",[7],67.2%
same,"viability, T/C",[8],46.1%
same,"viability, T/C","second compound 0.316 µM, first compound 0.00316 µM",21.6%
same,"viability, T/C","second compound 0.316 µM, first compound 0.01 µM",21.1%
same,"viability, T/C",[9],17.8%
same,"viability, T/C",[10],23.1%
same,"viability, T/C",[11],18.7%
same,"viability, T/C",[12],9.12%
same,"viability, T/C","second compound 1 µM, first compound 0.00316 µM",0.15%
same,"viability, T/C","second compound 1 µM, first compound 0.01 µM",0.55%
same,"viability, T/C",[13],3.58%
same,"viability, T/C",[14],0.43%
same,"viability, T/C",[15],1.38%
same,"viability, T/C",[16],0.47%
same,"viability, T/C","second compound 3.16 µM, first compound 0.00316 µM",0.8%
same,"viability, T/C","second compound 3.16 µM, first compound 0.01 µM",1.88%
same,"viability, T/C",[17],0.12%
same,"viability, T/C",[18],1.66%
same,"viability, T/C",[19],2.74%
same,"viability, T/C",[20],1.56%
same,"viability, T/C","second compound 10 µM, first compound 0.00316 µM",0.1%
same,"viability, T/C","second compound 10 µM, first compound 0.01 µM",0.55%
same,"viability, T/C",[21],0.69%
same,"viability, T/C",[22],0.18%
same,"viability, T/C",[23],0.5%
same,"viability, T/C",[24],3.25%
O=c1[nH]cc(F)c(=O)[nH]1 + CN1CCN(c2cc(C(=O)Nc3cc4cc(-c5cnn(C)c5)ccc4cn3)ccn2)CC1,IC50,second compound 0.0316 µM,7520 nM
same,IC50,second compound 0.1 µM,4680 nM
same,IC50,second compound 0.316 µM,< 31.6 nM
same,IC50,second compound 1 µM,< 31.6 nM
same,IC50,second compound 3.16 µM,< 31.6 nM
same,IC50,second compound 10 µM,< 31.6 nM
same,"viability, T/C",[1],106%
same,"viability, T/C",[2],104%
same,"viability, T/C",[3],96.2%
same,"viability, T/C",[4],113%
same,"viability, T/C","second compound 0.0316 µM, first compound 3.16 µM",74.2%
same,"viability, T/C","second compound 0.0316 µM, first compound 10 µM",42%
same,"viability, T/C",[5],99.3%
same,"viability, T/C",[6],77.6%
same,"viability, T/C",[7],83.7%
same,"viability, T/C",[8],84.6%
same,"viability, T/C","second compound 0.1 µM, first compound 3.16 µM",57.8%
same,"viability, T/C","second compound 0.1 µM, first compound 10 µM",34.9%
same,"viability, T/C",[9],17.3%
same,"viability, T/C",[10],21.2%
same,"viability, T/C",[11],21.1%
same,"viability, T/C",[12],20.9%
same,"viability, T/C","second compound 0.316 µM, first compound 3.16 µM",20.4%
same,"viability, T/C","second compound 0.316 µM, first compound 10 µM",16.1%
same,"viability, T/C",[13],0.17%
same,"viability, T/C",[14],1.7%
same,"viability, T/C",[15],0.17%
same,"viability, T/C",[16],1.14%
same,"viability, T/C","second compound 1 µM, first compound 3.16 µM",3.07%
same,"viability, T/C","second compound 1 µM, first compound 10 µM",0.39%
same,"viability, T/C",[17],0.09%
same,"viability, T/C",[18],3.26%
same,"viability, T/C",[19],2.64%
same,"viability, T/C",[20],0.08%
same,"viability, T/C","second compound 3.16 µM, first compound 3.16 µM",3.66%
same,"viability, T/C","second compound 3.16 µM, first compound 10 µM",5.79%
same,"viability, T/C",[21],0.09%
same,"viability, T/C",[22],1.51%
same,"viability, T/C",[23],0.76%
same,"viability, T/C",[24],2.73%
same,"viability, T/C","second compound 10 µM, first compound 3.16 µM",1.68%
same,"viability, T/C","second compound 10 µM, first compound 10 µM",3.54%
